Experimental data: patent US9227969B2, “Compounds and compositions as inhibitors of MEK” (NOVARTIS AG, priority 2013, dated 2016)
pIC50: −log10 of the molar value. Read-outs that look alike come from different tables or passages of the source.

What was measured:
[1] = target: T1, human full length MEK1 kinase (Homo sapiens (Human), UniProt Q02750); test: biochemical
From the text: (§2) A BRAF-MEK-ERK cascade assay is used to evaluate the effects of these compounds as inhibitors of the MAP kinase pathway. […] TR-FRET (Time resolved fluorescence resonance energy transfer) detection technology is used for the read out.

[2] = target: T1, human full length MEK1 kinase; settings: read-out: MEK1 1 mM ATP IC50, BRAF-MEK-ERK cascade
From the text: as §2

[3] = target: LCK (Homo sapiens (Human), UniProt P06239); test: Kinase Panel screen: LCK; format: biochemical
Sequence of LCK (P06239 whole entry, species assumed): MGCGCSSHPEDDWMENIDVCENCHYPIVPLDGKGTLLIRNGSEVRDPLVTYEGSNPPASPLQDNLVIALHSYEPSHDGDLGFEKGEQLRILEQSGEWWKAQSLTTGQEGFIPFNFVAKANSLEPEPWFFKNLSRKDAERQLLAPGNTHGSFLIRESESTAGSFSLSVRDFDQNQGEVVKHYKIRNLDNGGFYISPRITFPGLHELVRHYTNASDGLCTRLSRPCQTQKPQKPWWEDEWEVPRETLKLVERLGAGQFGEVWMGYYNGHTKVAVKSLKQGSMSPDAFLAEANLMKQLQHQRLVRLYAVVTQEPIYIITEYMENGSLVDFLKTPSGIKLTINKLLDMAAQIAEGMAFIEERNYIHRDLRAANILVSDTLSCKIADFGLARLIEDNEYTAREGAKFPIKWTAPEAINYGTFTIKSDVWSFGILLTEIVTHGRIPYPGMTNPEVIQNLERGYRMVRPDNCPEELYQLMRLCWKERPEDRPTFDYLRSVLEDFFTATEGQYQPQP
From the text: (§1) Compounds of the invention are screened, using assay conditions known in the art, against some or all of the “Kinase Panel” comprising ABL1, ABL1 (T315I), ACVR1, AKT1, ALK, AURKA, AXL, BTK, CAMK2D, CDK1B, CDK2A, CDK4D1, CSK, CSNK1G3, EGFR, EPHA4, EPHB4, ERBB4, FGFR1, FGFR2, FGFR3, FGFR3 (K650E), FGFR4, FLT3 (D835Y), IGF1R, GSK3B, INSR, IRAK4, JAK1, JAK2, JAK3, KDR, KIT, LCK, LYN, MAP3K8, MAPK1, MAPK10, MAPK14, MAPKAPK2, MAPKAPK5, MET, MKNK1, MKNK2, PAK2, PDGFRa, PDPK1, PIM2, PKN1, PKN2, PLK1, PRKACA, PRKCA, PRKCQ, RET, ROCK2, RPS6 KB1, SRC, SYK, TYK2, WNK1, ZAP70, PIKSCD, PIK3CG, MTOR, PIK3C3, PIK3CA, PIK3CB and PIK4CB.

[4] = target: PDGFRa (Homo sapiens (Human), UniProt P16234); test: Kinase Panel screen: PDGFRa; format: biochemical
Sequence of PDGFRa (P16234 24-1089, species assumed): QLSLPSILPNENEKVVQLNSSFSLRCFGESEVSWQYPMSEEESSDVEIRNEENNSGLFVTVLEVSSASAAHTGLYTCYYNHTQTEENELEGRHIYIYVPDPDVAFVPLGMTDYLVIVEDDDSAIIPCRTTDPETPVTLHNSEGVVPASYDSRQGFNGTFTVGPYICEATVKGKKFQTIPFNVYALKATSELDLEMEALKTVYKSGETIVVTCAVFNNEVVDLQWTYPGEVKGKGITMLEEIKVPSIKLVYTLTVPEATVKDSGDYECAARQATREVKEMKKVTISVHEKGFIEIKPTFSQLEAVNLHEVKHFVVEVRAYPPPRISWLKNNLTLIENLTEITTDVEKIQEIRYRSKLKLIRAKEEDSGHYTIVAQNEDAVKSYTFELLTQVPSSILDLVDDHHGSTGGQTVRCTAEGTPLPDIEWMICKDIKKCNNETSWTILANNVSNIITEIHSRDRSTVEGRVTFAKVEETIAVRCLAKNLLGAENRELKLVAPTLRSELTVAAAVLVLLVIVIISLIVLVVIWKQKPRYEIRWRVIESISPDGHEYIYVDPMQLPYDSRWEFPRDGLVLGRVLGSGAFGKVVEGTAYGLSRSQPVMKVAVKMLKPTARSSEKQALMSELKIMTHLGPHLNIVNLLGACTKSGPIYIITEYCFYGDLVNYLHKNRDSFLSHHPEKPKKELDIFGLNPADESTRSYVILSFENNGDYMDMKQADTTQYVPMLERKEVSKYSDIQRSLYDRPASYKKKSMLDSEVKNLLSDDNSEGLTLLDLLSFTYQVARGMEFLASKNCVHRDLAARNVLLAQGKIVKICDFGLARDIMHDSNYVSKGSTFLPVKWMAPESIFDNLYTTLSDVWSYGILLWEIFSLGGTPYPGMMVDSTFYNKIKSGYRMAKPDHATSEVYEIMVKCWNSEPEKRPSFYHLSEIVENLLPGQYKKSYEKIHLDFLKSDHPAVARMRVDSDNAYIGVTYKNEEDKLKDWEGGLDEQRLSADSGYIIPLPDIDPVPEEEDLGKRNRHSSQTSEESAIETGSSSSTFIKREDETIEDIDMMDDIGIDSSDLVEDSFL
From the text: as §1

[5] = target: ABL1 (Homo sapiens (Human), UniProt P00519); test: Kinase Panel screen: ABL1; format: biochemical
Sequence of ABL1 (P00519 whole entry, species assumed): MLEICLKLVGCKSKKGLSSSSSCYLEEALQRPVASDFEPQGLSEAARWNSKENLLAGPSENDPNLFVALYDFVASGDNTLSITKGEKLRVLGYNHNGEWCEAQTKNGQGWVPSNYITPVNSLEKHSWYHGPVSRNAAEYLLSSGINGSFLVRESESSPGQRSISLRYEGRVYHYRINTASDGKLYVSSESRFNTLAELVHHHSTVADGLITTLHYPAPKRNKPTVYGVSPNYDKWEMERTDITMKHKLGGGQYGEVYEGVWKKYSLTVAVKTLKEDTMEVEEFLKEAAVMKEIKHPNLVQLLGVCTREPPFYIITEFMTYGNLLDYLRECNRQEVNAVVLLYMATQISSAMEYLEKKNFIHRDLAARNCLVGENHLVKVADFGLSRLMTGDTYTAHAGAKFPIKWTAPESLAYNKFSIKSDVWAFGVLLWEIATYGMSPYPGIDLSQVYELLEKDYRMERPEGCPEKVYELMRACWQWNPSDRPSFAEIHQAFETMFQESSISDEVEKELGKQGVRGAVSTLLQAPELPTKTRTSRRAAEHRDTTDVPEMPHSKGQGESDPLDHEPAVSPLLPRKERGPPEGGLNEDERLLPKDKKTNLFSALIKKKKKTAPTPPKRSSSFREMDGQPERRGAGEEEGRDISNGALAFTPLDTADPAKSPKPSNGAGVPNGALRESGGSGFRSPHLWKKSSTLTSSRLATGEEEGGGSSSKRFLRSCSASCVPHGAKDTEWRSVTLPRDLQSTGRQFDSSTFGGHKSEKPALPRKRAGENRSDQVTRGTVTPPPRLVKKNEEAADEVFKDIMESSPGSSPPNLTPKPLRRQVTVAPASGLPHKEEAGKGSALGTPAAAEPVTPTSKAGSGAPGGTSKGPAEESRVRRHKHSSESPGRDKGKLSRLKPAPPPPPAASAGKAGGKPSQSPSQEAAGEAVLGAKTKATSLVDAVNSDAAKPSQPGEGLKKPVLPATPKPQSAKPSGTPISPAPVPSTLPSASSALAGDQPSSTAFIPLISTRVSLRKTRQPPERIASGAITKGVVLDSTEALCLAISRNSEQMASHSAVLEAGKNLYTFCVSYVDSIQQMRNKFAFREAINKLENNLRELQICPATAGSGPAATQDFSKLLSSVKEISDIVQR
From the text: as §1

[6] = target: LYN (Homo sapiens (Human), UniProt P07948); test: Kinase Panel screen: LYN; format: biochemical
Sequence of LYN (P07948 whole entry, species assumed): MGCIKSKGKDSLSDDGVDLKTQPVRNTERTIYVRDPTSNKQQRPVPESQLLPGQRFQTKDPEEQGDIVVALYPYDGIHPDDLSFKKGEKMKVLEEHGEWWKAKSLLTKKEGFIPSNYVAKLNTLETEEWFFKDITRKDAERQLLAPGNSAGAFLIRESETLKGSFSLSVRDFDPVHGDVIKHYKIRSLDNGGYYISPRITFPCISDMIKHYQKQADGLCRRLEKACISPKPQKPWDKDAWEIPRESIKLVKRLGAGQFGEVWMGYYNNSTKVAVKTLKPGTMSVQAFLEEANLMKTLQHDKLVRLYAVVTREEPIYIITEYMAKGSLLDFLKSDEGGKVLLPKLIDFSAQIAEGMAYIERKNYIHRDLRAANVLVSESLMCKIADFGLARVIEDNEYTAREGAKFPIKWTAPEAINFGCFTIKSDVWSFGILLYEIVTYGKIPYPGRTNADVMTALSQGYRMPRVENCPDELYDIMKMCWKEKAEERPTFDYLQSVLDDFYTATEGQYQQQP
From the text: as §1

T1 sequence (Q02750 whole entry): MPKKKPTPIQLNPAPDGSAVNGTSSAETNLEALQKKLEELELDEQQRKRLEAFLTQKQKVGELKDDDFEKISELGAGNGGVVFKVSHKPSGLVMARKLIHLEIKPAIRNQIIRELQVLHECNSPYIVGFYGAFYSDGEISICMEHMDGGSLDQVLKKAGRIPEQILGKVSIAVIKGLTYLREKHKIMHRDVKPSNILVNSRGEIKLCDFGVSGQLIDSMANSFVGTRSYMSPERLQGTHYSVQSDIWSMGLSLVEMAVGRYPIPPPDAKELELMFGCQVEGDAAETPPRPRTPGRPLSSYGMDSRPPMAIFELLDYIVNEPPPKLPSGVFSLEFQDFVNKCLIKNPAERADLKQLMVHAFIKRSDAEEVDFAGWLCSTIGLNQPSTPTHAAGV

SMILES	pIC50 [1]	pIC50 [2]	pIC50 [3]	pIC50 [4]	pIC50 [5]	pIC50 [6]
Cc1nc2cnc3cc(F)c(-c4ccc(Oc5ncccn5)cc4Cl)cc3c2n1[C@@H]1CCN(C(=O)CO)C[C@H]1F [Example 1B, 1-((3R,4R)-4-(8-(2-chloro-4-(pyrimidin-2-yloxy)phenyl)-7-fluoro-2-methyl-1H-imidazo[4,5-c]quinolin-1-yl)-3-fluoropiperidin-1-yl)-2-hydroxyethanone]	6.86	6.86	–	–	–	–
Cc1nc2cnc3cc(F)c(-c4ccc(Oc5ncccn5)cc4Cl)cc3c2n1[C@H]1CCN(C(=O)CO)C[C@@H]1F [Example 1A, 1-((3S,4S)-4-(8-(2-chloro-4-(pyrimidin-2-yloxy)phenyl)-7-fluoro-2-methyl-1H-imidazo[4,5-c]quinolin-1-yl)-3-fluoropiperidin-1-yl)-2-hydroxyethanone]	8.30	8.30	–	–	–	–
COc1cc(Oc2ccccn2)ccc1-c1ccc2ncc3ncn(-c4ccc(CC#N)cc4)c3c2c1 [compound (B)]	–	–	8.15	7.30	7.70	7.52
